In patent publication US20260184689A1, “PIPERIDINE-SUBSTITUTED BENZOIC ACID COMPOUND, AND PHARMACEUTICAL COMPOSITION AND USE THEREOF” (SHANGHAI YISHENG BIOPHARMACEUTICAL COMPANY LIMITED, priority 2022, published 2026):

How the values were obtained:
[1] = target: T1, Complement factor B (Homo sapiens, UniProt P00751); assay: Human complement factor B ELISA assay (CVF-Bb, complement C3 protein); type: biochemical; parameters: followed by the addition of 0.2 μL of CVF-Bb (0.1 μmol/mL); conditions: CVF-Bb incubated with compound 1 hour, then complement C3 protein 37° C. 2 hours, OD 450 nm
Experimental: The mixture was incubated at room temperature for 1 hour;
Then, 9 μL of the successfully incubated samples were taken and added to the wells of the 96T plate, followed by the addition of 1 μL complement C3 protein, and the reaction was carried out at a constant temperature of 37° C. for 2 hours;
The 9 μL of the aforementioned sample-free liquid was mixed with 1 μL of complement C3 protein as the negative control; • 10 μL of the successfully incubated sample was taken, and the inhibitory concentration was determined by ELISA. The OD value at 450 nm was measured, and a curve was plotted. The obtained data were analyzed using GraphPad Prism 7.0 software, and a Log concentration-inhibition rate curve was generated using a nonlinear regression model to calculate the IC50 value.
Target sequence in this assay (P00751 260-764 limits assumed): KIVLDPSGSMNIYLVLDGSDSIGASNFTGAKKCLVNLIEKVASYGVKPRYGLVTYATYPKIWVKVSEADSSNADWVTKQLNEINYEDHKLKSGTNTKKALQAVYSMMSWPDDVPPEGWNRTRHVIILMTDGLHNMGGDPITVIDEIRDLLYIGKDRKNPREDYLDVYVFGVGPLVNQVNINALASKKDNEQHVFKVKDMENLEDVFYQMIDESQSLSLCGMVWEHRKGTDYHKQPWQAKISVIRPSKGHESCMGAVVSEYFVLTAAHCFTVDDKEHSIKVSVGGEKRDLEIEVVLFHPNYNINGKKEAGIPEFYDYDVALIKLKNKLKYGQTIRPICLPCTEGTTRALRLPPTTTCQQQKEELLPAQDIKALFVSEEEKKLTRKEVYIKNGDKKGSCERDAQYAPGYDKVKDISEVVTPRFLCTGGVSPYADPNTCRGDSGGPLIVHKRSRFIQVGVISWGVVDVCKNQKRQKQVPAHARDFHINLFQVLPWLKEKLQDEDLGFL
Target sequence in this assay (Q91132 23-649 partner limits assumed): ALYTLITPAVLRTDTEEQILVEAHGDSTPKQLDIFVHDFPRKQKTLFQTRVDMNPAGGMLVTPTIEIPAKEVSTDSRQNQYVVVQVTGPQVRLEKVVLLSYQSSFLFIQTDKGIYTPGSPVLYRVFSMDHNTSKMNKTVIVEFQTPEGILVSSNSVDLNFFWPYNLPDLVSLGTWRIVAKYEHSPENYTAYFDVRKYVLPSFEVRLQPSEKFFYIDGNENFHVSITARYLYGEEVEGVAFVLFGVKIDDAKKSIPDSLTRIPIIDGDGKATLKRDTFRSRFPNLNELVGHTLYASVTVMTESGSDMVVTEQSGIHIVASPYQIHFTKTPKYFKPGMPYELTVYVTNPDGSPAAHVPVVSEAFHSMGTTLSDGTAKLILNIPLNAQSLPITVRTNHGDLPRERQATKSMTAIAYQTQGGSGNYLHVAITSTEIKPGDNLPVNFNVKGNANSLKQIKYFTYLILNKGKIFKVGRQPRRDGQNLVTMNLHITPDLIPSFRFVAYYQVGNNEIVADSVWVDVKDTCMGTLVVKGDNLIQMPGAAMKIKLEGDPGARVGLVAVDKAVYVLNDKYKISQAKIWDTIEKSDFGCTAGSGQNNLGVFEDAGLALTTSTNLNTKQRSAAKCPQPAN
Target sequence in this assay (Q91132 733-984 partner limits assumed): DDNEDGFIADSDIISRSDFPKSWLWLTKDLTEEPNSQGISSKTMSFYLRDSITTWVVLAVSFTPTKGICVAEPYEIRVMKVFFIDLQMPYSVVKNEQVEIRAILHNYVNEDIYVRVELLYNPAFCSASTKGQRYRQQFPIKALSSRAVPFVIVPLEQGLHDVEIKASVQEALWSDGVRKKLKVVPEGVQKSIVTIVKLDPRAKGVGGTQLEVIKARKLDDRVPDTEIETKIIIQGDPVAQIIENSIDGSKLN
Target sequence in this assay (Q91132 1264-1642 partner limits assumed): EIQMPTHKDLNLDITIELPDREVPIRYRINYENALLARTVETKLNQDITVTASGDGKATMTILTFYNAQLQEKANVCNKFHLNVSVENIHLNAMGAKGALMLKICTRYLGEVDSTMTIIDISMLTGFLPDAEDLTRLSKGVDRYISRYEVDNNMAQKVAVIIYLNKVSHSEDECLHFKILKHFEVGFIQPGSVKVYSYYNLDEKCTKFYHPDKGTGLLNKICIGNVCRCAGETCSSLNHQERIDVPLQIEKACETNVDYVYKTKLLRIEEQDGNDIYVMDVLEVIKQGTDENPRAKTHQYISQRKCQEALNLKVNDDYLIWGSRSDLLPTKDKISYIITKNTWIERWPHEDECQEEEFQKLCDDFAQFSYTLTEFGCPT

[2] = tested on: LPS-induced complement activation; assay: In vivo efficacy assay of LPS-induced complement activation in mice; conditions: female C57BL/6J mice, LPS 100 μg intraperitoneal, PO
Experimental: Experimental objective: To investigate the inhibitory effect of the compounds of the present disclosure on complement activation in mice induced by LPS stimulation.
Experimental animals: Female C57BL/6J mice, 7 to 9 weeks old, weighing between 17 to 23 g.
Experimental procedure: 100 μg of lipopolysaccharide (LPS) in Salmonella typhimurium (Sigma) dissolved in 100 μL of sterile PBS was intraperitoneally injected to induce complement activation in mice. Negative control animals were intraperitoneally injected 100 μL of sterile PBS and administered alone by tube feeding (PO). Positive control animals were intraperitoneally injected LPS and PO drug vehicles (0.5% (w/v) methyl cellulose and 0.5% (v/v) Tween 80).
Sample collection: 0.3 mL of blood samples were collected from the orbital venous plexus. All blood samples were added to commercially available EDTA-K2 anticoagulant tubes with a specification of 1.5 mL. After collection, within half an hour, the blood sample was centrifuged at 4° C., 3000 g for 10 min to aspirate the supernatant plasma, which was put in dry ice immediately, and stored in a refrigerator at −80° C. for Western blot analysis of downstream C3d protein levels after complement activation.
Sample analysis: Mouse plasma (5 μL)+Lysis buffer (27.5 μL)+Loading buffer (12.5 μL)+Reducing buffer (5 μL) were mixed well and incubated at 100° C. for 15 min with a loading volume of 5 μL/well, i.e., a loading volume of plasma of 0.5 μL per well.
Test compounds: positive compound LNPO23, the final product of Example 158, the final products (compound 159A and compound 159B) of Example 159, and compound 11 of Example 75.

[3] = tested on: Sheep Anti-Rat Fx1A Serum induced Heymann nephritis; assay: In vivo efficacy assay of passive Heymann nephritis in rats; conditions: male SD rats, intragastric twice a day for 14 days, 5, 20 and 60 mpk; LNP023 60 mpk
From the text: Experimental objective: To investigate the ability of the compounds of the present disclosure to improve renal function of Sheep Anti-Rat Fx1A Serum induced Heymann nephritis in rats, including the evaluation of reducing proteinuria level and improving renal tissue damage.
Experimental animals: Male SD rats, 7 to 10 weeks old, weighing between 200 to 300 g.
Urine was collected from rats on D-2 before administration. On D1, the first day of the experiment, animals in the control group (group 1) were administered 5 mL/kg of Sheep Non-Immune serum via a single tail vein injection; animals in the model and administration groups (groups 2 to 6) were administered 5 mL/kg of Sheep Anti-Rat Fx1A Serum via a single tail vein injection.
The rats were treated by intragastric administration twice a day with an interval of 8 hours and a volume of 10 mL/kg. On D1, 1 hour before modeling, animals in groups 1 and 2 were administered blank vehicle 20% PEG400/10% Solutol/70% water; animals in group 3 were administered LNP023 (60 mpk); animals in groups 4 to 6 were administered different concentrations of synthetic compounds (5 mpk, 20 mpk, and 60 mpk); 8 hours after the first administration, each group was administered again with the same dose and volume as the first administration. From D2 to D14, animals in each group were administered different compounds or vehicles for 14 consecutive days (including the first day) according to the dose, volume, administration method, and frequency on D1.
Urine collection: Urine samples were collected from rats on D-2 before administration, and 2 to 4 hours and 4 to 6 hours after the first administration on D4, D6, D8, D11, and D14 after administration, transferred to EP tubes and stored in a refrigerator at −80° C. to −60° C. for the detection of urine protein and creatinine in rats.
Kidney sample collection: All animals were euthanized with CO2 inhalation anesthesia on Day 15, and bilateral kidneys were collected. The left kidney was cut transversely, and the right kidney was cut longitudinally. Half of the transversely cut kidney (left side) and half of the longitudinally cut kidney (right side) were fixed in formalin (placed in the same EP tube).
4. […] Urine total protein (uTP) in rats was detected without dilution; if exceeding the upper detection limit, it was 10-fold diluted (10 μL of sample+90 μL of saline (0.9% saline)) first (Decrease mode); if still exceeding the upper detection limit after 10-fold dilution, it was 100-fold diluted (2 μL of sample+198 μL of saline (0.9% saline)) (Increase mode). Data were read by the analytical instrument HITACHI LST008AS(P). • (2) Kidney pathological scoring: The degree of drug damage to rat kidneys (paraffin sections) was analyzed by HE staining. […]

[4] = target: T1, Complement factor B; assay: Optical surface plasmon resonance (SPR) binding affinity assay
Target sequence in this assay (P00751 26-764): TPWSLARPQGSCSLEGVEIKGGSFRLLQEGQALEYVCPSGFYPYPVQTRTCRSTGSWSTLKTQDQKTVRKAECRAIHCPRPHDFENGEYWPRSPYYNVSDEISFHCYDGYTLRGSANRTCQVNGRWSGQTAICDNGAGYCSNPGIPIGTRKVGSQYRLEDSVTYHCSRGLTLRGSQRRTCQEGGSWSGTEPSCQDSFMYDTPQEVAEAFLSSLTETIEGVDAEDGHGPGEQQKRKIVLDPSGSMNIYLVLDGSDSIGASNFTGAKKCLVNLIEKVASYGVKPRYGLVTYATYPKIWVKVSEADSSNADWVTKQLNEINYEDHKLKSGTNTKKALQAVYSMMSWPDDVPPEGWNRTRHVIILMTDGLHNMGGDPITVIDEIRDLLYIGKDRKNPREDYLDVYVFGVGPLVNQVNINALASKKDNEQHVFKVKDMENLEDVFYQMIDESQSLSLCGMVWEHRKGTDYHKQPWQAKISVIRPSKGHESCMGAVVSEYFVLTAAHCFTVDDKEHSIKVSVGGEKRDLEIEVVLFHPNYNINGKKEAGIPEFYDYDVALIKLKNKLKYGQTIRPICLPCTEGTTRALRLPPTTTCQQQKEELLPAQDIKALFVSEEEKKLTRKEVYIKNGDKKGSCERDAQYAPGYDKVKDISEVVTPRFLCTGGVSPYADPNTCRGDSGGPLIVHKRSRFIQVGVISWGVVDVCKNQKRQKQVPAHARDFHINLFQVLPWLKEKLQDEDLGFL
Experimental: The SPR experiment was conducted at 25° C. using PBS buffer supplemented with 0.05% (v/v) P20 and 5% DMSO as the running buffer. The Biacore 8K instrument from GE Healthcare was employed for analysis. The CM3 chip (GE Healthcare) was activated with 400 mM EDC and 100 mM NHS at a flow rate of 30 μL/min for 420 s.

| Compound | IC50 [1] | inhibition of LPS-induced complement activation (plasma C3d levels), compared with LNP023 [2] | performance in the kidney disease model through urine and kidney pathology analysis, compared with LNP023 [3] | Kd [4] |
| --- | --- | --- | --- | --- |
| CCCC1CCN(C(=O)c2c(OC)cc(C)c3[nH]ccc23)[C@H](c2ccc(C(=O)O)cc2)C1 (mixture of isomers) [Final product of Example 158, 4-((2S)-1-(5-Methoxy-7-methyl-1H-indole-4-carbonyl)-4-propylpiperidin-2-yl)benzoic acid] | 0.005 to 0.03 µM | superior or equivalent | performed better | 0.005 to 0.02 µM |
| CCCC1CCN(C(=O)c2c(OC)cc(C)c3[nH]ccc23)C(c2ccc(C(=O)O)cc2)C1 (single isomer, unassigned) [Compound 159A] | 0.005 to 0.03 µM | superior or equivalent | performed better | 0.005 to 0.02 µM |
| CCO[C@H]1CCN(Nc2c(OC)cc(C)c3[nH]ccc23)[C@H](c2ccc(C(=O)O)cc2)C1 [Compound 11 of Example 75, 4-((2S,4S)-4-Ethoxy-1-((5-methoxy-7-methyl-1H-indol-4-yl)amino)piperidin-2-yl)benzoic acid] | 0.01 to 0.03 µM | superior or equivalent | performed better | 0.005 to 0.02 µM |
